{"source": "patent US20130217694A1", "about": "“METHOD OF REDUCING THE SEVERITY OF INFLAMMATORY DERMATOLOGICAL CONDITIONS” (Allergan, Inc.., priority 2003, published 2013)", "key": {"[1]": {"target": "T1, hamster α-1B adrenergic receptor (Mesocricetus auratus, UniProt P18841)", "T1 sequence (P18841 1-515)": "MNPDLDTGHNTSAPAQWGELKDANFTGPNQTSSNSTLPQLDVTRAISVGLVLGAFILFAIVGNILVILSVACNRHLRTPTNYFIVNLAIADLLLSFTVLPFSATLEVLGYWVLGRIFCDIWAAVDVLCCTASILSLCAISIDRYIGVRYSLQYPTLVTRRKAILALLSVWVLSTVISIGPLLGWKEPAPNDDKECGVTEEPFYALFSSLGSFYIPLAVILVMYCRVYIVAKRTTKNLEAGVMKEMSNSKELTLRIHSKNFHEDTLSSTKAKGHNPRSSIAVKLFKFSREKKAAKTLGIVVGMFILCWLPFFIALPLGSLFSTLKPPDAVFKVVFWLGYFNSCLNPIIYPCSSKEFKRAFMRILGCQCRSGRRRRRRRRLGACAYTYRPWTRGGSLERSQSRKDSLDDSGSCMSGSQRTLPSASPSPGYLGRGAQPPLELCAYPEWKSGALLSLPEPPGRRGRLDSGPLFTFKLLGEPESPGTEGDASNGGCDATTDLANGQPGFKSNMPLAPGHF", "assay_type": "cell-based", "experimental": "(§1) The bovine α-1A and hamster α-1B receptor supernatants were added, in varying amounts, to naive HEK293 cells, which were then incubated for 48 hours. The transduced cell populations were replated at a lower density and grown in media containing 0.25 ug/ml puromycin. […] Receptor density was measured in a prazosin radioligand binding assay.\n(§2) Intracellular Ca^+2 responses were measured as follows in HEK293 cells stably expressing either the bovine α-1A or hamster α-1B adrenergic receptor. Between 40,000 to 50,000 cells were plated per well in 96-well poly-D-lysine coated plates in 0.2 ml DMEM containing 10% heat-inactivated fetal calf serum, 1% antibiotic-antimycotic and 0.25 μg/ml puromycin one day prior to use. Cells were washed twice with HBSS supplemented with 10 mM HEPES, 2.0 mM CaCl2 and 2.5 mM probenicid, and subsequently incubated at 37° C. for 60 minutes with 4 μM Fluo-4 (Molecular Probes; Eugene, Oreg.). The extracellular dye was washed from the plates twice prior to placing the plates in the fluorometric imaging plate reader (FLIPR; Molecular Devices; Sunnyvale, Calif.). Ligands were diluted in HBSS and aliquoted into a 96-well microplate. Drugs were tested over the concentration range of 0.64 nM to 10,000 nM. Data for Ca^+2 responses were obtained in arbitrary fluorescence units."}, "human α-2A receptor": {"target": "T2, human α-2A receptor (Homo sapiens, UniProt P08913)", "T2 sequence (P08913 1-465)": "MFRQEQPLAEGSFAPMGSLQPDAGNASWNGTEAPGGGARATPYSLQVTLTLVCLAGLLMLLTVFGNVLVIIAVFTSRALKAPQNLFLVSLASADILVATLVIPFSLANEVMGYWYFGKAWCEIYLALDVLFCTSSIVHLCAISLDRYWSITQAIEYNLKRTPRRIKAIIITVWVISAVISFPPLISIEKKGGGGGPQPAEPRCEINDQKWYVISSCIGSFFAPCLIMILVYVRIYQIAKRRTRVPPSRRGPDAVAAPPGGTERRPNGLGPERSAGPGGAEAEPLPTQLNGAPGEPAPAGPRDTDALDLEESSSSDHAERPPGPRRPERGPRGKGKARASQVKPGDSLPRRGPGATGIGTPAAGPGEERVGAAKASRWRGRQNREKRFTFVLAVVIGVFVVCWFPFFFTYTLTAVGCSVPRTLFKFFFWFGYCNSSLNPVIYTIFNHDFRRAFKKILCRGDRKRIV", "details": "percent efficacy relative to brimonidine", "experimental": "(§3) The human α-2A and α-2C receptor supernatants were added, in varying amounts, to naive PC12 cells, which were then incubated for 48 hours. The transduced cell populations were replated at a lower density and grown in media containing 100 ug/ml puromycin.\n(§4) Intracellular cAMP measurement was performed as follows. PC12 cells stably expressing the human α-2A or human α-2C adrenergic receptors were plated in 96-well poly-D-lysine coated plates at a density of 30,000 cells per well in 100 μl DMEM supplemented with 10% horse serum, 5% heat inactivated fetal bovine serum, 1% antibiotic-antimycotic and 100 μg/ml puromycin. Cells were grown overnight at 37° C. and 5% CO2. Cells were dosed by adding an equal volume of media containing IBMX (to a final concentration of 1 mM), forskolin (to a final concentration of 10 μM) and the appropriate drug dilution (to a final concentration of between 10^−5 M and 10^−12 M). After a 10 minute incubation, the media was aspirated and the cells lysed with 200 μl lysis buffer (Amersham Biosciences; Piscataway, N.J.). Plates were stored at −20° C. for up to 24 hours prior to assay. Intracellular cAMP was determined using the Biotrak cAMP enzyme immunoassay system (Amersham Biosciences) according to the manufacturer's instructions. Plates were read on a plate reader at 450 nm."}, "[2]": {"target": "T3, bovine α-1A adrenergic receptor (Bos taurus, UniProt P18130)", "T3 sequence (P18130 1-466)": "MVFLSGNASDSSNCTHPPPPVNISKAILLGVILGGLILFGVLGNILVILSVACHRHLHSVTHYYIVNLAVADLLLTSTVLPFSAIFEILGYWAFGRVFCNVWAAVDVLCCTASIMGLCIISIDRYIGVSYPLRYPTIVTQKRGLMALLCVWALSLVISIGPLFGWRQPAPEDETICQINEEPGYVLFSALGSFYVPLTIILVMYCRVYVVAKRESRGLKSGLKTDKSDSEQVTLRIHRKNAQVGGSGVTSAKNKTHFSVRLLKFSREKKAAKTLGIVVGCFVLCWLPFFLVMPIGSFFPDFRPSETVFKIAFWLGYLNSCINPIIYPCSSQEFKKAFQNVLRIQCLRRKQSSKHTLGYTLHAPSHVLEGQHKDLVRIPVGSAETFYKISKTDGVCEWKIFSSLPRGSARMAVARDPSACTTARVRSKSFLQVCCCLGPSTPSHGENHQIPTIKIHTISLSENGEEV", "test": "Intracellular Ca+2 response in HEK293 cells expressing bovine α-1A receptor", "assay_type": "cell-based", "experimental": "as §1, §2"}, "human α-2C receptor": {"target": "T4, human α-2C receptor (Homo sapiens, UniProt P18825)", "T4 construct": "expressed in transfected cells; host or cells: PC12 cells (retroviral vector pCL BABE Puro)", "T4 sequence (P18825 1-462)": "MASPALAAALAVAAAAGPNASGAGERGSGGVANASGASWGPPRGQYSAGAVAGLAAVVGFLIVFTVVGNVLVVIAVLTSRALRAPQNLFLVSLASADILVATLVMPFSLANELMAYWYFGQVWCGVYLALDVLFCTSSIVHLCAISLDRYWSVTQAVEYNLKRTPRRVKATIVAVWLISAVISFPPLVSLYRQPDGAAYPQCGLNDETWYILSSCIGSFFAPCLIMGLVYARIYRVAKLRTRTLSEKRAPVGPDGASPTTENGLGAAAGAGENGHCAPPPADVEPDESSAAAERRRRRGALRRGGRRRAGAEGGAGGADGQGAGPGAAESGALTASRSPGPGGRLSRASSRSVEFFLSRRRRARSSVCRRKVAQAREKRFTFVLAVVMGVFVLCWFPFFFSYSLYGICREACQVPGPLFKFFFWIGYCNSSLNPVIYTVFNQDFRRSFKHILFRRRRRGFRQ", "test": "Inhibition of forskolin-induced cAMP accumulation in PC12 cells expressing human α-2C receptor", "assay_type": "cell-based", "details": "percent efficacy relative to brimonidine", "experimental": "as §3, §4"}, "[3]": {"details": "percent efficacy relative to phenylephrine"}}}
{"smiles": "Cc1cccc([C@H](C)c2cnc[nH]2)c1C", "note": "[Dexmedetomidine]", "values": [{"measurement": "hamster α1B % E", "setting": "[1]; [3]", "value": 62, "unit": "%"}, {"measurement": "agonist activity at the α-1B receptor", "setting": "[1]; result in words", "value": "partial agonists"}, {"measurement": "human α2A % E", "setting": "human α-2A receptor", "value": 93, "unit": "%"}, {"measurement": "bovine α1A % E", "setting": "[2]; [3]", "value": 59, "unit": "%"}, {"measurement": "agonist activity at the α-1A receptor", "setting": "[2]; result in words", "value": "partial agonists"}, {"measurement": "human α2C % E", "setting": "human α-2C receptor", "value": 90, "unit": "%"}]}
